Values after ≈ are worked out from the molar mass of the structure shown. Active and inactive are the calls of the source. No cut-off for these calls is given here.
Columns and labels:
[1] = system: Mycobacterium tuberculosis; assay: Antitubercular activity against Mycobacterium tuberculosis H37Rv ATCC 27294 using GAST/Fe medium after 1 week in absence of guanine by broth microdilution method; type: functional; settings: H37Rv ATCC 27294, 168 h
[2] = system: Mycobacterium tuberculosis; assay: Antitubercular activity against Mycobacterium tuberculosis H37Rv ATCC 27294 using 7H9/ADC/Tween medium after 1 week in absence of guanine by broth microdilution method; type: functional; settings: H37Rv ATCC 27294, 168 h
[3] = target: T1, GMP reductase 2 (Homo sapiens, UniProt Q9P2T1); assay: Inhibition of human GMPR2 using GMP as substrate by spectrophotometric method; settings: read-out: Ki(app)
T1 sequence (Q9P2T1 whole entry): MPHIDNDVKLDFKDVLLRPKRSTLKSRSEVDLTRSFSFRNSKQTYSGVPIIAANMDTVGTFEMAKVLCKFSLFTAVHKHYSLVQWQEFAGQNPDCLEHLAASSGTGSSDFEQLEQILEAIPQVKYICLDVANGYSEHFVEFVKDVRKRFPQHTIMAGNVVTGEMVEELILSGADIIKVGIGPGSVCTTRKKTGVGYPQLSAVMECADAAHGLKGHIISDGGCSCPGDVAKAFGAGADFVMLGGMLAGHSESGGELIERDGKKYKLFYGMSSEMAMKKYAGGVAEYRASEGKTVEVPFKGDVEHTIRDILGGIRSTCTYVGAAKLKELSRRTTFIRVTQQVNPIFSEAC

[4] = target: Inosine-5'-monophosphate dehydrogenase 2 (Homo sapiens, UniProt P12268); assay: Inhibition of human IMPDH2 using IMP as substrate by spectrophotometric method; settings: read-out: Ki(app)
[5] = system: Mycobacterium tuberculosis; assay: Antitubercular activity against Mycobacterium tuberculosis H37Rv ATCC 27294 using GAST/Fe medium after 1 week in presence of guanine by broth microdilution method; type: functional; settings: H37Rv ATCC 27294, 168 h
[6] = system: Mycobacterium tuberculosis; assay: Antitubercular activity against Mycobacterium tuberculosis H37Rv ATCC 27294 using 7H9/ADC/Tween medium after 1 week in presence of guanine by broth microdilution method; type: functional; settings: H37Rv ATCC 27294, 168 h
[7] = system: Mycobacterium tuberculosis; assay: Antitubercular activity against Mycobacterium tuberculosis H37Rv ATCC 27294 using GAST/Fe medium after 2 weeks in absence of guanine by broth microdilution method; type: functional, organism-based

Row | Structure (SMILES) | MIC [1] [µM] | MIC [2] [µM] | Ki [3] [µM] | Ki [4] [µM] | MIC [5] [µM] | MIC [6] [µM] | Activity [7]
1 | C[C@H](Oc1cccc(Cl)c1Cl)C(=O)Nc1ccc2oc(-c3ccc(C#N)cc3)nc2c1 | 4 (≈ 1.81 µg/mL) | 3 (≈ 1.36 µg/mL) | > 5 | 2.3 | 5 | 6 | –
2 | COc1ccc(Cc2nc3cc(NC(=O)[C@H](C)Oc4cccc(Cl)c4Cl)ccc3o2)cc1 | – | – | > 5 | > 5 | – | – | –
3 | COc1ccc(-c2nc3cc(NC(=S)[C@H](C)Oc4cccc(Cl)c4Cl)ccc3o2)cc1 | 37 (≈ 17.5 µg/mL) | > 50 | > 5 | > 5 | > 50 | > 50 | –
4 | C[C@H](Oc1cccc(Cl)c1Cl)C(=O)Nc1ccc2oc(-c3cccc(OCC(=O)O)c3)nc2c1 | – | – | > 5 | > 5 | – | – | –
5 | C[C@H](Oc1ccccc1OCc1ccccc1)C(=O)Nc1ccc2oc(-c3ccc(C#N)cc3)nc2c1 | – | – | > 5 | > 5 | – | – | –
6 | C[C@H](Oc1ccc(F)c(F)c1F)C(=O)Nc1ccc2oc(-c3ccc(C#N)cc3)nc2c1 | > 50 | > 50 | > 5 | > 5 | > 50 | > 50 | –
7 | C[C@H](Oc1cccc(Cl)c1Cl)C(=O)Nc1ccc2oc(-c3ccc(OC(F)(F)F)cc3)nc2c1 | > 50 | > 50 | > 5 | > 5 | > 50 | > 50 | –
8 | C[C@H](Oc1cccc(Cl)c1Cl)C(=O)Nc1ccc2oc(-c3ccc(F)cc3)nc2c1 | > 50 | > 50 | > 5 | > 5 | > 50 | > 50 | –
9 | C[C@H](Oc1cccc(Cl)c1Cl)C(=O)Nc1ccc2oc(-c3cc[n+]([O-])cc3)nc2c1 | – | – | > 5 | > 5 | – | – | –
10 | C[C@H](Oc1cccc2c1B(O)OC2)C(=O)Nc1ccc2oc(-c3ccc(C#N)cc3)nc2c1 | – | – | > 5 | > 5 | – | – | –
11 | C[C@H](Oc1cccc(Cl)c1Cl)C(=O)Nc1ccc2oc(-c3ccc(C(=O)O)cc3)nc2c1 | 4 (≈ 1.89 µg/mL) | ≥ 25 | > 5 | > 5 | 5 | > 50 | Active
12 | C[C@H](Oc1cccc(Cl)c1Cl)C(=O)Nc1ccc2oc(-c3ccc(C(=O)NN)cc3)nc2c1 | – | – | > 5 | > 5 | – | – | –
13 | C[C@H](Oc1cccc(Cl)c1Cl)C(=O)Nc1ccc2oc(-c3ccc(-c4noc(=O)[nH]4)cc3)nc2c1 | – | – | > 5 | > 5 | – | – | –
14 | COc1ccc(-c2nc3cc(NC(=O)[C@H](C)Oc4cccc(Cl)c4Cl)ccc3o2)cc1 | > 50 | > 50 | > 5 | > 5 | > 50 | > 50 | –
15 | C[C@H](Oc1cccc(F)c1F)C(=O)Nc1ccc2oc(-c3ccc(O)cc3)nc2c1 | 6 (≈ 2.46 µg/mL) | 7 (≈ 2.87 µg/mL) | > 5 | > 5 | 19 | > 30 | –
16 | C[C@H](Oc1cccc(Cl)c1Cl)C(=O)Nc1ccc2oc(-c3ccc(O)cc3)nc2c1 | – | – | > 5 | > 5 | – | – | –
17 | C[C@H](Oc1cccc(Cl)c1Cl)C(=O)Nc1ccc2oc(-c3ccc(CN)cc3)nc2c1 | 11 (≈ 5.02 µg/mL) | 25 (≈ 11.4 µg/mL) | > 5 | > 5 | 11 | 25 | –
18 | C[C@H](Oc1cccc(Cl)c1Cl)C(=O)Nc1ccc2oc(-c3ccc(/C(N)=N\O)cc3)nc2c1 | 25 (≈ 12.1 µg/mL) | > 50 | > 5 | > 5 | 25 | > 50 | –

Row | Structure (SMILES) | MIC [1] [µM] | MIC [2] [µM] | Ki [3] [µM] | Ki [4] [µM] | MIC [5] [µM] | MIC [6] [µM] | Activity [7]
19 | COc1ccc(-c2nc3cc(NC(=O)[C@H](C)Oc4cccc(F)c4F)ccc3o2)cc1 | 5 (≈ 2.12 µg/mL) | 4 (≈ 1.7 µg/mL) | > 5 | > 5 | 8 | 14 | –
20 | COc1ccc(-c2cn3cc(NC(=O)[C@H](C)Oc4cccc(Cl)c4Cl)ccc3n2)cc1 | – | – | > 5 | > 5 | – | – | –
21 | COC(=O)c1ccc(-c2nc3cc(NC(=O)[C@H](C)Oc4cccc(Cl)c4Cl)ccc3o2)cc1 | – | – | > 5 | > 5 | – | – | –
22 | C[C@H](Oc1cccc(Cl)c1Cl)C(=O)Nc1ccc2oc(-c3ccccc3O)nc2c1 | – | – | > 5 | > 5 | – | – | –
23 | C[C@H](Oc1ccccc1O)C(=O)Nc1ccc2oc(-c3ccc(C#N)cc3)nc2c1 | 22 (≈ 8.79 µg/mL) | 9.4 (≈ 3.75 µg/mL) | > 5 | > 5 | 25 | 22 | –
24 | C[C@H](Oc1cccc(Cl)c1Cl)C(=O)Nc1ccc2oc(-c3ccc(-c4n[nH]c(=O)o4)cc3)nc2c1 | > 50 | > 50 | > 5 | 2.9 | > 50 | > 50 | –
25 | CCOC(=O)COc1cccc(-c2nc3cc(NC(=O)[C@H](C)Oc4cccc(Cl)c4Cl)ccc3o2)c1 | 0.9 (≈ 0.476 µg/mL) | 1.6 (≈ 0.847 µg/mL) | > 5 | > 5 | 1.4 | 1.6 | –
26 | C[C@H](Oc1cccc(F)c1F)C(=O)Nc1ccc2oc(-c3ccc(F)cc3)nc2c1 | > 50 | > 50 | > 5 | > 5 | > 50 | > 50 | –
27 | COc1ccc(-c2nc3cc(NC(=O)[C@H](C)Oc4cccc(F)c4F)ccc3o2)cn1 | 6 (≈ 2.55 µg/mL) | > 50 | > 5 | > 5 | 8 | > 50 | –
28 | COc1ccc(-c2nc3cc(NC(=O)[C@H](C)Oc4cccc(Cl)c4Cl)ccc3o2)cn1 | 7 (≈ 3.21 µg/mL) | 6 (≈ 2.75 µg/mL) | > 5 | > 5 | 9 | > 25 | –
29 | C[C@H](Oc1cccc(Cl)c1Cl)C(=O)Nc1ccc2oc(-c3ccc(C(N)=O)cc3)nc2c1 | – | – | > 5 | > 5 | – | – | –
30 | C[C@H](Oc1cccc(F)c1C#N)C(=O)Nc1ccc2oc(-c3ccncc3)nc2c1 | 6 (≈ 2.41 µg/mL) | 4 (≈ 1.61 µg/mL) | > 5 | > 5 | 11 | 8 | –
31 | C[C@H](Oc1cccc(Cl)c1Cl)C(=O)Nc1ccc2oc(-c3ccncc3)nc2c1 | 9.4 (≈ 4.03 µg/mL) | 16 (≈ 6.85 µg/mL) | > 5 | > 5 | 37 | 28 | –
32 | COc1ccc(-c2nc3cc(NC(=O)[C@H](C)Oc4ccccc4CN)ccc3o2)cc1 | 9.4 (≈ 3.92 µg/mL) | 5.5 (≈ 2.3 µg/mL) | > 5 | > 5 | 16 | 9.4 | –
33 | C[C@H](Oc1cccc(Cl)c1Cl)C(=O)Nc1ccc2oc(-c3cccc(O)c3)nc2c1 | – | – | > 5 | > 5 | – | – | –
34 | C[C@H](Oc1cccc(Cl)c1Cl)C(=O)Nc1ccc2oc(-c3ccc(C(=O)NO)cc3)nc2c1 | 3 (≈ 1.46 µg/mL) | 30 (≈ 14.6 µg/mL) | > 5 | > 5 | 6 | > 50 | Active
35 | C[C@H](Oc1ccccc1C#N)C(=O)Nc1ccc2oc(-c3ccncc3)nc2c1 | – | – | > 5 | > 5 | – | – | –
36 | C[C@H](Nc1cccc(Cl)c1Cl)C(=O)Nc1ccc2oc(-c3ccncc3)nc2c1 | 6.7 (≈ 2.86 µg/mL) | 12 (≈ 5.13 µg/mL) | > 5 | > 5 | 50 | 35 | –

Source: ChEMBL document CHEMBL4184333, “Expanding Benzoxazole-Based Inosine 5'-Monophosphate Dehydrogenase (IMPDH) Inhibitor Structure-Activity As Potential Antituberculosis Agents” (J Med Chem, 2018)
